Earlier results on 1 compound are cited in patent publication US20070148249A1, “Method of preparation of oral solid dosage form with instant release of acting” (priority 2003, published 2007).

Like-named read-outs stand apart in the source and are kept apart here.

Turning to `CC(C)(C)NC(=O)[C@H]1CC[C@H]2[C@@H]3CC[C@H]4NC(=O)C=C[C@]4(C)[C@H]3CC[C@]12C` [Finasteride, (5α,17β)-N-(1,1-dimethylethyl)-3-oxo-4-azaandrost-1-en-17-carboxamide], the Solubility entry runs as follows: (in chloroform and lower alcohols) “well soluble”; (in water) “almost insoluble”.
